Ends that are not written are not given here.
What was measured:
[1] = target: T1, FAP protein (Homo sapiens, UniProt Q12884); assay: Biacore (SPR) test of compound affinity to FAP protein; assay type: binding; conditions: for pKD (FAP): Biacore 8K, SA chip, 15 °C, single cycle, 1:1 binding model, pKD = -LogKD
T1 construct: purchased Sinobiological
T1 sequence (Q12884 1-760): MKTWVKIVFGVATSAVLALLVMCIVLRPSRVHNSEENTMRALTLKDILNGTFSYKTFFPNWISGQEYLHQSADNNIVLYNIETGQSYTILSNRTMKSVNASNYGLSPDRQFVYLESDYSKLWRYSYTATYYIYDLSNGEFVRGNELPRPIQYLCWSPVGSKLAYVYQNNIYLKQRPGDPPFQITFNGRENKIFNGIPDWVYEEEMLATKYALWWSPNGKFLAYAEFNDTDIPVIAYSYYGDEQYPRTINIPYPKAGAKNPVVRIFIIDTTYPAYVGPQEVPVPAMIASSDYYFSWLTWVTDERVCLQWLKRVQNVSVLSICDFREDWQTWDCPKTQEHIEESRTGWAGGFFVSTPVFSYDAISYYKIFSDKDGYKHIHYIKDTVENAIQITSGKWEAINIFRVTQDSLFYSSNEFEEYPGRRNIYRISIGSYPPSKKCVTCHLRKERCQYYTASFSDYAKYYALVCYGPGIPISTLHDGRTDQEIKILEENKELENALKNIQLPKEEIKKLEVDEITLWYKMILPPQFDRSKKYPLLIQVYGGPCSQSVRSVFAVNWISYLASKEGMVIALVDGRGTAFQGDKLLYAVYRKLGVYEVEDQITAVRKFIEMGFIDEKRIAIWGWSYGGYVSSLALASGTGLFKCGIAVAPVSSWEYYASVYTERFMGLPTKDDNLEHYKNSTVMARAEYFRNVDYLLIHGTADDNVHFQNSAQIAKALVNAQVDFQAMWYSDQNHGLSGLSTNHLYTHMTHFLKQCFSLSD
Procedure: The Biacore 8K (Cytiva) instrument was used to detect ligand binding of the FAP protein (Sinobiological). FAP protein was captured on the SA chip. Prior to ligand immobilization (flow paths 1 and 2, flow rate of 10 µL/min), FAP protein (10 µg/mL, flow rate of 5 µL/min, injection time of 600 s) was immobilized on flow path 2 using running buffer. The sensor surface was conditioned by injecting 1M NaCl three consecutive times in 50 mM NaOH. After each ligand injection, additional cleaning was performed using isopropanol in 1M NaCl and 50 mM NaOH (flow path 1 and 2, flow rate of 10 µL/min, injection time of 60 s).
The tested compound was dissolved in 100% dimethyl sulfoxide and diluted to 10 mM, then diluted in the assay buffer (PBS, pH 7.4, 1 mM TCEP ([…]), 0.05% P20, 2% dimethyl sulfoxide) to an appropriate maximum concentration. The analyte was run under the following conditions: analysis temperature of 15 °C, analysis step = all set to LMW kinetics; cycle type = single cycle (contact time of 90 s, dissociation time of 1800 s, flow rate of 30 µL/min, flow channels 1 and 2); channel detection = 2-1. Data was evaluated using the Biacore Insight Evaluation Software, and the data were fitted to a 1:1 binding model.
The Biacore results are shown in Table 2 below: pKD = -LogKD, where KD is the binding affinity of the compound to the FAP protein as measured by Biacore.

[2] = target: dipeptidyl peptidase IV (DPPIV) (Homo sapiens, UniProt P27487); assay: Protease inhibition selectivity assay (fluorogenic substrate Gly-Pro-AMC), DPPIV; assay type: biochemical; conditions: recombinant human DPPIV 0.1 nM, pH 7.5; read-out: pIC50 (DPPIV) (converted)
Chain of dipeptidyl peptidase IV (DPPIV) (P27487 whole entry): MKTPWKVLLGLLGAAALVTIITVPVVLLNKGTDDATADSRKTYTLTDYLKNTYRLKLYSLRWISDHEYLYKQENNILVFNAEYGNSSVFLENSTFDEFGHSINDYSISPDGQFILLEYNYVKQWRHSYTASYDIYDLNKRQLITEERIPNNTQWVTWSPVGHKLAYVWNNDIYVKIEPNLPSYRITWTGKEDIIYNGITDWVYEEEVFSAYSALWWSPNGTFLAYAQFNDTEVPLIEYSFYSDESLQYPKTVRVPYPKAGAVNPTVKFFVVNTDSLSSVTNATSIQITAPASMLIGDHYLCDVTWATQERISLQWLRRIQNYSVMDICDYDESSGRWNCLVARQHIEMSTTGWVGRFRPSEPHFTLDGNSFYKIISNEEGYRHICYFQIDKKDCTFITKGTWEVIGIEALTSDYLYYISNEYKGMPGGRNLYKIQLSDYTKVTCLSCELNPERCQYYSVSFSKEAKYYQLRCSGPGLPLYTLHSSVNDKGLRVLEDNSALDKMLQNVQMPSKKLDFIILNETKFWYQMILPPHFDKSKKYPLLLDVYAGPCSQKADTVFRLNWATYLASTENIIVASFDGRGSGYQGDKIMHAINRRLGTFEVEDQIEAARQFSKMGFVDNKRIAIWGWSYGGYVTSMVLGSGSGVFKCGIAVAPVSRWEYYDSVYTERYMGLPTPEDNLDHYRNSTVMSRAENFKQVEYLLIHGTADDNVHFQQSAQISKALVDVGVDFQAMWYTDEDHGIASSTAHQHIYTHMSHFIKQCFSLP
Procedure: (§1) The specificity of the synthesized compounds for recombinant human dipeptidyl peptidase IV (DPPIV), fibroblast activation protein (FAP), or prolyl oligopeptidase (PREP) was expressed by their half-maximal inhibitory concentration (IC50) against the proteases. […] It was incubated at room temperature for 10 minutes, with the plate being shaken for the first two minutes. • 6) 10 µL of the 20x substrate prepared in step 3 was added to each well and incubated at room temperature for 15 minutes, with the plate being shaken for the first two minutes. • 7) Fluorescence was read at λex:380 and λem:460.

[3] = target: T2, prolyl oligopeptidase (PREP) (Homo sapiens, UniProt P48147); assay: Protease inhibition selectivity assay (fluorogenic substrate Z-Gly-Pro-AMC), PREP; assay type: biochemical; conditions: recombinant human PREP 0.6 nM, pH 8.0
T2 sequence (P48147 1-710): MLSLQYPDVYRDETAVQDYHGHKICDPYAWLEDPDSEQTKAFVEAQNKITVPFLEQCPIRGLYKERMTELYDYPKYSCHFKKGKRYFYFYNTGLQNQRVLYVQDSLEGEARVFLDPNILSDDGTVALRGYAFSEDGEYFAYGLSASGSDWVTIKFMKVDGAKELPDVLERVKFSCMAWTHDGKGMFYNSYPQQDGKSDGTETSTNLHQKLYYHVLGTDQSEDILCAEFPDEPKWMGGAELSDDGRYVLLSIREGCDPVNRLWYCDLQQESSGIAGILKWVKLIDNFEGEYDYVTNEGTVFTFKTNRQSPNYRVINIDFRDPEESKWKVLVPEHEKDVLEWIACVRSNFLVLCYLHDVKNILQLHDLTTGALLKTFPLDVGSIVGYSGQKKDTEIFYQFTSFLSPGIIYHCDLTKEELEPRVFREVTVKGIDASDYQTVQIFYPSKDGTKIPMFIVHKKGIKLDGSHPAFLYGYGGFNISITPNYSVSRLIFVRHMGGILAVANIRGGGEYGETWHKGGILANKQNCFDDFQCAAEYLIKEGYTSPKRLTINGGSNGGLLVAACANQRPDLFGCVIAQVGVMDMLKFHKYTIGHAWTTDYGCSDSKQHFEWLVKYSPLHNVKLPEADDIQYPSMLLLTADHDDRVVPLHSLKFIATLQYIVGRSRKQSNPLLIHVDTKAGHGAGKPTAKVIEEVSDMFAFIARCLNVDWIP
Procedure: as §1

[4] = target: T3, fibroblast activation protein (FAP) (Homo sapiens, UniProt Q12884); assay: Protease inhibition selectivity assay (fluorogenic substrate Z-Gly-Pro-AMC), FAP; assay type: biochemical; conditions: recombinant human FAP 1.2 nM, pH 7.5
T3 sequence (Q12884 1-760): T1 sequence (Q12884 1-760)
Procedure: as §1

| Molecule | pKD (FAP) [1] | Kd ([1]; read-out: pKD (FAP) (converted)) | IC50 [2] | IC50 [3] | IC50 [4] |
| --- | --- | --- | --- | --- | --- |
| Hex[Cys(3MeBn)-hhy44(NH)-CO-Pro-Thr-Gln-Phe-Cys]-Lys-(DOTA)-OH (PTQFC-{K(DOTA)-OH}; not fully specified (N-terminus, bridges); also: cyclised within brackets, ring closure not given here) [JHDC07] | B (B: 7<pKD<8) | – | – | – | – |
| CCCCCC(=O)N[C@H]1CSCc2cc(CSCCNC(=O)CN3CCN(CC(=O)O)CCN(CC(=O)O)CCN(CC(=O)O)CC3)cc(c2)CSC[C@@H](C(=O)O)NC(=O)[C@H](Cc2ccccc2)NC(=O)[C@H](CCC(N)=O)NC(=O)[C@H]([C@@H](C)O)NC(=O)[C@@H]2CCCN2C(=O)[C@@H]2CCCN2C1=O [FAP-2286] | – | 10 to 100 nM | > 1000 nM | > 1000 nM | < 10 nM |
| Oct[Cys(tMeBn-DOTA-AET)-hhy39-Pro-Thr-Gln-hhy34-Cys]-Glu-(Arg-Gly-Asp(NH2))-OH [JHDC21] | B (B: 7<pKD<8) | – | – | – | – |
